Experimental data from patent publication US4868195A, “Novel enolamides, pharmaceutical compositions and methods of use thereof for activity as modulators of the arachidonic acid cascade” (Warner-Lambert Company, priority 1988, dated 1989).

Assays:
[1] = molecular target: T1, human leukocyte 5-lipoxygenase (Homo sapiens, UniProt P09917); assay: 5-lipoxygenase inhibition in human leukocytes, 5-HETE formation (5LOA; methods 5LOA1 and 5LOA2); assay type: cell-based; conditions: 5-HETE formation, human leukocytes; read-out: Concentration (M) for 50.0 % Inhibition, IC (5LOA)
T1 construct: endogenous in cells; host or cells: intact leukocytes isolated from human blood
T1 sequence (P09917 1-674): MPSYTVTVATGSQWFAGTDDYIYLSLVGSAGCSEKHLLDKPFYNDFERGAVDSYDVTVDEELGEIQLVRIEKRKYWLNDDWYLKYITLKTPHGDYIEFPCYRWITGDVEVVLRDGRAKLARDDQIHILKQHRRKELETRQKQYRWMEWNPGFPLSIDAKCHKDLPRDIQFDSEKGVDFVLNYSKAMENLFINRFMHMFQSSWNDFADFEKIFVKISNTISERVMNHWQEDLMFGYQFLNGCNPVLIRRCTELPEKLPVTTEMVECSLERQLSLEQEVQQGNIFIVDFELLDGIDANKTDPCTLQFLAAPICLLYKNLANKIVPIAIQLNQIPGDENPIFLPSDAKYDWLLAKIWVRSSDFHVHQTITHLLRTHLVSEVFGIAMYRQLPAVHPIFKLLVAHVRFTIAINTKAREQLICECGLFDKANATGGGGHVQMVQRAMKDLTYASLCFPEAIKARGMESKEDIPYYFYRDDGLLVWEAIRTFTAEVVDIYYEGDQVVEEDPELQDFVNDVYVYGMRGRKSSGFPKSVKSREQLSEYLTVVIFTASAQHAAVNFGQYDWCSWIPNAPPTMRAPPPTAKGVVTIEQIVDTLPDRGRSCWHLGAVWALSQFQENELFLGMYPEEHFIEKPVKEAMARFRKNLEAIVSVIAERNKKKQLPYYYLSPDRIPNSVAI
From the text: To Evaluate the Effect of Each Compounds as a 5-Lipoxygenase Inhibitor in Comparison to Standard Reference Agents in Human Leukocytes (5LOA1)
The purpose of this assay is to evaluate the activity of each compound as an inhibitor of human leukocyte 5-lipoxygenase.
Arachidonic acid and calcium ionophore A23187 are obtained from Sigma (St. Louis, MO). Silica gel plates, GF are obtained from Analtech (Newark, DE). Arachidonic acid, (1-^14 C) and 5-HETE (^3 H), 5 (S)-hydroxy-6-trans,8,11,14-cis eicosatetraenoic acid, are obtained from New England Nuclear (Boston, MA). Six percent Dextran-70 in 0.9% NaCl is obtained from Cutter Labs (Berkeley, CA).
Preparation of Leukocytes
Fresh blood from normal adult men who had not received any drugs for at least the previous five days is obtained by the Community Research Clinic (WL/PD) using venipuncture and collected into heparinized vacuotainer tubes. To every 100 ml of pooled blood is added 25 ml of dextran solution (6% dextran -70 in 0.9% sodium chloride containing 3% dextrose) and this is mixed gently in a plastic cylinder. The mixture is left to stand at room temperature for at least 90 minutes. The upper layer which is rich in leukocytes and platelets is then carefully decanted into 50 ml plastic tubes and centrifuged at about 100×g for eight minutes in an IEC centrifuge and rotor number 269 (about 600 rpm). The supernatant fluid is discarded and the pellet is resuspended in 10 ml of 0.87% ammonium chloride for exactly two minutes. This procedure is to lyse completely contaminating red blood cells. Leukocytes are then separated by centrifugation for ten minutes. The pellet is washed three times by suspension in 20 ml PBS (sodium chloride, 7.1 g; Na2 HPO4, 1.15 g; KH2 PO4, 0.2 g, and KCl, 0.2 g/L) and centrifuged as before. The final pellet is suspended in PBS containing 0.87 mM CaCl2. Viability of the cells is then checked using trypan blue exclusion method and is found to be over 90%.
5-Lipoxygenase Enzyme Assay
Leukocyte cells in suspension (0.98 ml) are incubated with or without test compounds for five minutes at 37° C. in a shaking water bath. At this time a 17 μl mixture is prepared per 1 ml of cell suspension: 100 mM arachidonic acid, 1 μl, 0.05 μCi ^14 C-arachidonic acid in 5 μl; 1 mM calcium ionophore A23187, 10 μl (1). This mixture is added and the incubation continued for five minutes. The reaction is stopped by adding four volumes of absolute ethanol and the mixture is kept in ice for 30 minutes. The floculated precipitate is separated by centrifugation at about 37,000×g for 20 minutes (Beckman Instruments rotor number 40). The alcohol extract is taken to dryness under a stream of nitrogen and the residue is dissolved in 100-200 μl absolute ethanol. At the time any turbidity is removed by centrifugation. An aliquot (25-50 μl) is applied onto 20×20 cm silica gel TLC plate and developed using the following solvent system: diethyl ether, petroleum ether (2040° C.), acetic acid (50:50:1 v/v). Zones of 1 cm apart are scraped from the TLC plate and transferred to mini-vials. Methanol (0.5 ml) is added to dissolve the radioactivity adsorbed to the silica gel and scintillation fluid (H. P., Beckman), 5 ml is then added and vials are counted in a liquid scintillation counter. A sample of ^3 H-5-HETE is applied and used for the identification of the formed 5-HETE.
Total radioactivity in the test as well as the control samples are normalized and the amount of 5-HETE present is calculated accordingly.
IC50 values are defined as the concentrations of test agents which caused a 50% inhibition of the formation of 5-HETE as compared to control and are determined by inspection of the concentration-response curves.
5-Lipoxygenase Assay Using Isolated Human Leukocytes (5LOA2)
The formation of 5-HETE in human leukocytes is considered a measure of 5-lipoxygenase activity. The protocol is described in the following. […]

[2] = molecular target: Human Leukocyte Lipoxygenase; assay: Human Leukocyte Lipoxygenase Assay (LDA-H); assay type: biochemical; conditions: for IC50: acetone-pentane powder enzyme, 234 nm, 24° C., 5 min preincubation, read-out: Concentration (M) for 50.0 % Inhibition, IC (LDAH); for % Inhibition (LDAH): Concentration 2.50 E -5 M
Summary of the method: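 Enzyme from acetone-pentane powder of human buffy-coat leukocytes, extracted in 0.1M Tris pH 7.4. Compound preincubated 5 min with enzyme, then reaction started with arachidonic or linoleic acid (100 μM or 1.0 μM) and followed at 234 nm (conjugated diene) at 24° C. IC50 is molar concentration halving control rate.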

Structure (SMILES)	IC50 [1]	IC50 [2]	% Inhibition (LDAH) [2]
O=C(Nc1ccc(CCc2ccc(O)c(O)c2)cc1)C1=C(O)c2ccccc2S(=O)(=O)C1 [Example 21, N-[4-[2-(3,4-Dihydroxyphenyl)ethyl]phenyl]-4-hydroxy-2H-1-benzothiopyran-3-carboxamide, 1,1-dioxide]	7e-07 M	8.2e-06 M	
COc1ccc(CCc2ccc(NC(=O)C3Oc4cc5ccccc5cc4C3=O)cc2)cc1OC (centres unmarked) [Example 101, Naphtho[2,3-b]furan-2-carboxamide, N-[4-[2-(3,4-dimethoxyphenyl)ethyl]phenyl]-2,3-dihydroxy-3-oxo]	8.5e-06 M		0.0%
COc1ccc(CCc2ccc(NC(=O)C(=O)c3oc4ccccc4c3O)cc2)cc1OC [Example 121, 2-Benzofuranacetamide, N-[4-[2-(3,4-dimethoxyphenyl)ethyl]phenyl]-3-hydroxy-α-oxo]	7.6e-06 M	1.6e-06 M	
O=C(Nc1ccc(CCc2ccc(O)c(O)c2)cc1)c1oc2ccc3ccccc3c2c1O [Example 122, Naphtho[2,1-b]furan-2-carboxamide, N-[4-[2-(3,4-dihydroxyphenyl)ethyl]phenyl]-1-hydroxy-]	7.6e-07 M	2.3e-06 M	
O=C(Nc1ccc(CCc2ccc(O)c(O)c2)cc1)c1oc2ccccc2c1O [Example 124, 2-Benzofurancarboxamide, N-[4-[2-(3,4-dihydroxyphenyl)ethyl]phenyl]-3-hydroxy]	4.2e-06 M	6.5e-06 M	
O=C(Nc1ccc(CCc2ccc(O)c(O)c2)cc1)c1oc2c(ccc3ccccc32)c1O [Example 125, Naphtho[1,2-b]furan-2-carboxamide, N-[4-[2-(3,4-dihydroxyphenyl)ethyl]phenyl]-3-hydroxy]	4.01e-06 M	6.1e-06 M	
O=C(Nc1ccc(CCc2ccc(O)c(O)c2)cc1)C(=O)C1Oc2cc3ccccc3cc2C1=O (centres unmarked) [Example 129]	5e-07 M	1.6e-06 M	
O=C(Nc1ccc(CCc2ccc(O)c(O)c2)cc1)C(=O)C1=C(O)c2ccccc2OC1 [Example 150]	1.8e-06 M	4.7e-06 M	
Cn1c2ccccc2c2oc(C(=O)Nc3ccc(CCc4ccc(O)c(O)c4)cc3)c(O)c21 [Example 159, 4H-Furo[3,2-b]indole-2-carboxamide, N-[4-[2-(3,4-Dihydroxyphenyl)ethyl]phenyl]-3-hydroxy-4-methyl]	1.18e-06 M		
COc1ccc(CCc2ccc(NC(=O)c3oc4c5ccccc5n(C)c4c3O)cc2)cc1OC [Example 161, 4H-Furo[3,2-b]indole-2-carboxamide, N-[4-[2-(3,4-dimethoxyphenyl)ethyl]phenyl]-3-hydroxy-4-methyl]	9e-06 M		
O=C(Nc1ccc(CCc2ccc(O)c(O)c2)cc1)C1Oc2c(n(-c3ccccc3)c3ccc(O)cc23)C1=O (centres unmarked) [Example 163, 2H-Furo[3,2-b]indole-2-carboxamide, N-[4-[2-(3,4-dihydroxyphenyl)ethyl]phenyl]-3,4-dihydro-7-hydroxy-3-oxo-4-phenyl]	5e-07 M		0.0%
